We go through eleven compounds from publication PMC9351623 (Chem, 2022).

Assay [1] addresses T1, TrxR1 (Homo sapiens, UniProt Q16881).
T1 sequence (Q16881 1-499 isoform Q16881-5): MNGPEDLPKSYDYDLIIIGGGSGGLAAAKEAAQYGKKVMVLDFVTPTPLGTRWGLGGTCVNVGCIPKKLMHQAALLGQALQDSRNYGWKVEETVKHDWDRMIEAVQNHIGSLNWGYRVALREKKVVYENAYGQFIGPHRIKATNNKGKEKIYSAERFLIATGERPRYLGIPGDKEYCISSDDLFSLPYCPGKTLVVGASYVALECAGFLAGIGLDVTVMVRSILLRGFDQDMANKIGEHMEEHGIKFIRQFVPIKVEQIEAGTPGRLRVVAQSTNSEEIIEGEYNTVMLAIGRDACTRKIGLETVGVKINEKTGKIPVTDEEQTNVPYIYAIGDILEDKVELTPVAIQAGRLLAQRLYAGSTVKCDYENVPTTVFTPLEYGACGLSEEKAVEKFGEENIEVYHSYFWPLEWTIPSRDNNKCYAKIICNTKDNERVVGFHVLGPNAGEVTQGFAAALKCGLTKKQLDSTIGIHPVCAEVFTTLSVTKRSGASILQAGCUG
Description: Cellular quantitative HTS. Format: cell-based. Particulars: for pIC50 comparison between the two vinylsulfones: despite ca. 1.1 LogP difference; for activity in the cellular RX1 screen: hits classed up to 20 μM.

The target of assay [2] is T1, TrxR1. Particulars: cited from earlier work.
The target of assay [3] is T2, TrxR (Homo sapiens, UniProt Q16881).
T2 sequence (Q16881 1-499 isoform Q16881-5): T1 sequence (Q16881 1-499 isoform Q16881-5)
Briefly: Cellular probe signal after chemical inhibition of TrxR. Format: cell-based.

As to `Cc1ccc(S(=O)(=O)/C=C/C#N)cc1` [BAY 11–7082], the “pIC50 comparison between the two vinylsulfones” value in assay [1] was “no change”. The same measure, in the same setting: as for `CC(C)(C)c1ccc(S(=O)(=O)/C=C/C#N)cc1` [BAY 11–7085], the entry is “no change”. As to `CN(N=O)c1cc(O)ccc1O` [Dephostatin], the “potency loss in cells (ratio of cell-free to cellular potency)” value in assay [1] (cellular RX1 qHTS versus cell-free qHTS of ref 67) is reported as > 10 fold.

`Oc1ccc2ccccc2c1SSc1c(O)ccc2ccccc12` [IPA-3]: the “activity in the enzymatic (cell-free) TrxR screen” value (shortened to “activity … (cell-free) TrxR screen”) in assay [2] is given as “inactivity”. Besides, the “activity in the cellular RX1 screen” value in assay [1] is recorded as “active”.

On to `COc1ccc([N+](=O)[O-])c(S(=O)(=O)c2ccc(Cl)cc2)n1` [TRi-1], for which the “effect of TrxR inhibitor on cellular RX1 signal” value in assay [3] is “efficiently suppressed”.

`OC[C@H]1O[C@H]([S-])[C@H](O)[C@@H](O)[C@@H]1O.[Au+]` [aurothioglucose]: the “pIC50 (potency) lower than its ester prodrug auranofin” value in assay [1] was 10 fold. Turning to `C=CCN1CCc2c(cc(O)c(O)c2Cl)C(c2ccccc2)C1` (centres unmarked) [chloro-APB], in assay [2], the “activity … (cell-free) TrxR screen” value is “inactivity”. Also, the “activity in the cellular RX1 screen” value in assay [1] is on record as “active”. Take `O=c1c(O)c(-c2cc(O)c(O)c(O)c2)oc2cc(O)cc(O)c12` [myricetin]: the “apparent potency relative to the reference inhibitor TRi-1” value in assay [1] was ≤ 3%. For `O=C1CSC(=S)N1` [rhodanine], in assay [1], the “apparent potency relative to the reference inhibitor TRi-1” value is ≤ 3%. As to `CC(=O)c1c(O)c(C)c(O)c(Cc2c(O)c3c(c(C(=O)/C=C/c4ccccc4)c2O)OC(C)(C)C=C3)c1O` [rottlerin], in assay [1], the “apparent potency relative to the reference inhibitor TRi-1” value is listed as ≤ 3%. With `COC[C@H]1OC(=O)c2coc3c2[C@@]1(C)C1=C(C3=O)[C@@H]2CCC(=O)[C@@]2(C)C[C@H]1OC(C)=O` [wortmannin], in assay [2], the “activity … (cell-free) TrxR screen” value was “activity”. In assay [1], the “activity in the cellular RX1 screen” value is “inactive”.
